T1: mouse Clec10a (Mus musculus, UniProt P49300)
T1 construct: an extracellular and transmembrane portions of Clec10a fused to a cytoplasmic portion of CD3; expressed in transfected cells; host or cells: 2B4-NFAT-GFP reporter cells, pMXs-puro retroviral vector
T1 sequence (P49300 57-304 limits assumed): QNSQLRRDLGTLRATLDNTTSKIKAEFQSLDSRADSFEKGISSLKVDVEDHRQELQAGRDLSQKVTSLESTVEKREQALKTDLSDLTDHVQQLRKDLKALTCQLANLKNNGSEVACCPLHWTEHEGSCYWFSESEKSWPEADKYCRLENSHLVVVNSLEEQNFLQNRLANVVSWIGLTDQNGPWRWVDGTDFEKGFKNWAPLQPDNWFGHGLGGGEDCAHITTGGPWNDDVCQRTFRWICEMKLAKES

T2: human Asgr1 (Homo sapiens, UniProt P07306)
T2 construct: the extracellular region of human Asgr1 was subcloned into a pMXs-puro retroviral vector; expressed in transfected cells
T2 sequence (P07306 62-291 limits assumed): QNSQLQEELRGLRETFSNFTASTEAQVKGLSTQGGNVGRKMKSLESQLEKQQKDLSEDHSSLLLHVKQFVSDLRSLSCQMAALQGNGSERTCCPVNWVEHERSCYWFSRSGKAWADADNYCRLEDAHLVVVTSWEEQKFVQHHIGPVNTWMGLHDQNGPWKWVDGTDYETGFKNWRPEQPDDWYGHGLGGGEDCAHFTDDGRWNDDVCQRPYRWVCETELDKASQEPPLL

T3: human Clec10a (Homo sapiens, UniProt Q8IUN9)
T3 construct: The extracellular region of mouse or human Clec10a or the extracellular region of human Asgr1 was subcloned; expressed in transfected cells; host or cells: 2B4-NFAT-GFP reporter cells, pMXs-puro retroviral vector
T3 sequence (Q8IUN9 61-316 limits assumed): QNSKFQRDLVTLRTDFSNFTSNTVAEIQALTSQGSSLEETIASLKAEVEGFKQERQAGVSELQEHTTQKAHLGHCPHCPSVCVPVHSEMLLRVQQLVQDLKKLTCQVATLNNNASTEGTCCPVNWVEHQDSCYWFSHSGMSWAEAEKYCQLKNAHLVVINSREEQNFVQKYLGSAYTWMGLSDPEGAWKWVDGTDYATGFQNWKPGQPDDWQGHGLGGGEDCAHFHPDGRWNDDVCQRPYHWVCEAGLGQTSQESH

T4: Clec10a-Fc (Mus musculus, UniProt P49300)
T4 construct: cloning the extracellular region of mouse Clec10a into a pME18S expression vector; made in house; host or cells: HEK293T cells
T4 sequence (P49300 57-304 limits assumed): T1 sequence (P49300 57-304 limits assumed)

B1: rPAIL (protein, UniProt Q05097 2-122, looked up)
PA-I galactophilic lectin: AWKGEVLANNEAGQVTSIIYNPGDVITIVAAGWASYGPTQKWGPQGDREHPDQGLICHDAFCGALVMKIGNSGTIPVNTGLFRWVAPNNVQGAITLIYNDVPGTYGNNSGSFSVNIGKDQS

What was measured:
[1] = target: T1, mouse Clec10a; assay: Mouse Clec10a-CD3ζ NFAT-GFP reporter cell assay; type: cell-based; conditions: for GFP expression in mouse Clec10a reporter cells: stimulation with coated plates, 18 hours, flow cytometry
Method: (§1) The intracellular region of human CD3ζ was obtained from a vector provided by LL Lanier (University of California, San Francisco). The extracellular region of mouse or human Clec10a or the extracellular region of human Asgr1 was subcloned into a pMXs-puro retroviral vector. 2B4-NFAT-GFP reporter cells were provided from H. Arase (University of Osaka). 2B4-NFAT-GFP reporter cells stably expressing mouse or human Clec10a were made as described previously. The reporter cells were incubated for 18 hours in the presence or absence of anti-Clec10a mAb, Lewis X (GlycoTech), Lewes Y (GlycoTech), galactose (Sigma-Aldrich), glucose (Sigma-Aldrich) or mannose (Sigma-Aldrich). The reporter cells were also cultured on a galactosidase (R & D Systems, 5704 GH or 5549 GH) or glucosidase (R & D Systems, 8329-GH), or Clec10 ligand-coated plate, or an HDM extract-coated plate treated with size-fractionated Clec10a ligand or untreated. Activation of NFAT-GFP was monitored by flow cytometry.
To test whether Clec10a recognized glycosylated proteins contained in HDM, NFAT-GFP reporter cells (Clec10a reporter cells) were made which expressed chimeric fusion proteins inch ling an extracellular and transmembrane portions of Clec10a fused to a cytoplasmic portion of CD3.

[2] = target: T2, human Asgr1; assay: Human Asgr1-CD3ζ NFAT-GFP reporter cell assay; type: cell-based
Method: as §1
(§2) The hemITAM sequence (YxxL) was not found in human Clec10a and could only be found in human Asgr1 (see panel c in FIG. 4). […] Upon confirmation of protein expression, human Asgr1 expressed in MP in the human skin, similarly to Clec10a expression in the mouse skin (see panel e in FIG. 4). […]

[3] = target: T3, human Clec10a; assay: Human Clec10a-CD3ζ NFAT-GFP reporter cell assay; type: cell-based; conditions: addition of sugar, HDM-coated plates
Method: as §1, §2

[4] = target: T4, Clec10a-Fc; assay: Sugar conjugate (glycan) microarray analysis of Clec10a-Fc (Table 7); type: binding; conditions: for Signal value, Clec10a-Fc: glycan microarray probed with Clec10a-Fc; for Signal value, Clec10a-Fc with EDTA: glycan microarray probed with Clec10a-Fc with EDTA
Method: A sugar conjugate microarray containing 98 sugar conjugates (Table 3) was prepared according to a known method using a non-contact microarray printing robot (MicroSys 4000; Genomic Solutions).

[5] = test system: human IgG1; assay: Glycan microarray probed with human IgG1 (control of Table 7); type: binding
[6] = target: T4, Clec10a-Fc; assay: ELISA of Clec10a-Fc binding to glycan-coated plates; conditions: plates coated with Lewis X or Lewis Y
Source text: A mouse Clec10a chimeric construct (Clec10a-Fc) was made by cloning the extracellular region of mouse Clec10a into a pME18S expression vector containing the Fc region of human IgG1. Clec10a-Fc was transfected into HEK293T cells using Lipofectamine 2000 (Thermo Fisher Scientific) and the medium was then replaced with GIT medium (KOHJIN BIO). Clec10a-Fc was purified from the culture supernatants using protein a agarose (Bio-Rad Laboratories).
An ELISA system with Clec10a applied to glycan-coated plates was constructed by a routine method to study the binding of each glycan with Clec10a. In the ELISA system, with the expectation that a multivalent effect is achieved by binding a plurality of glycans to the polymeric scaffold, the glycans were bound to the polymeric scaffold and presented to Clec10a. […]
A PBS solution containing 1 μg/well, 0.1 μg/well, or 0.01 μg/well of the polymeric scaffold presenting the glycans at the location “Sugar” of the above formula as described above (the modification rate was 20% as per the above formula) was introduced into a 96 well plate, and incubation was performed overnight at room temperature so that the wells were coated with the glycans. […] After 1-hour incubation at room temperature, the unbound Clec10a-Fc was washed, and Clec10a-Fc bound to the plate surface was quantified with peroxidase-labeled anti-Fc antibodies. […]

[7] = test system: skin inflammation against lipopolysaccharides (LPS); assay: LPS-induced skin inflammation, intradermal LPS with polymeric scaffold presenting T antigen; type: in vivo, mouse; conditions: 50 μg LPS and 20 μg T antigen scaffold intradermal daily, Day 5
Method: It was examined whether one of them, T antigen, could suppress skin inflammation against lipopolysaccharides (LPS). The polymeric scaffolds presenting 50 μg LPS and 20 μg T antigen were intradermally injected in the mouse back daily and the epidermal thickness was observed on Day 5. […] In the Clec10a-knockout mice, the epidermal thickness was equal to or greater than that in the WT.

[8] = test system: BMMP; assay: Immunoprecipitation/immunoblot of SHP-1 recruitment to Clec10a in HDM-stimulated BMMP; type: cell-based, mouse; conditions: BMMP pretreated with Syk inhibitor, HDM extract 100 μg/mL
Method: To analyze association of Clec10a with Syk or SHP-1, BMMP was pretreated in the presence or absence of […] Syk inhibitor IV (Merck, 574714) at 37° C. for 30 minutes and stimulated with an HDM extract (100 μg/mL) at 37° C. for 0 min, 10 min, or 30 min. BMMP was lysed with a 0.2% digitonin buffer and immunoprecipitated with anti-Clec10a mAb. An immune precipitate was transferred onto a PVDF membrane as described above and immunoblotted using anti-Syk antibodies, anti-SHP-1 antibodies, or anti-Clec10a antibodies, and then detected with HRP-labeled anti-rabbit IgG antibodies or goat IgG antibodies. All proteins were detected using enhanced chemiluminescence (Thermo Fisher Scientific).

[9] = test system: lectins (96 lectins of Table 2); assay: Lectin microarray analysis of Clec10a ligand in HDM (Table 6); type: binding; conditions: Target: Pull-down assay sample from HDM using Clec10a-Fc (Clec10a ligand); signal at each lectin spot of the lectin microarray
Method: Lectin microarrays were made using a non-contact microarray printing robot (MicroSys4000; Genomic Solutions) according to the previous method. Samples were fluorescently labeled with Cy3 Mono-Reactive dye (Ge) and excess Cy3 was removed using a Sephadex g-25 desalting column (Ge). After 10 fold dilution with a probe solution (25 mM Tris-HCl, pH 7.5, 140 mM NaCl) (TBS) containing 2.7 mM KCl, 1 mM CaCl2, 1 mM MnCl2, and 1% Triton X-100, a Cy3-labeled sample was applied to a lectin microarray and incubated at 20° C. overnight. The sample was washed with a probe solution, and a fluorescence image was obtained using an evanescent-field activated fluorescence scanner (Bio-Rad scan 200, Rexxam Co. Ltd.). Lectin signals in triplicate spots were averaged for each protein sample and normalized to an average value of 96 lectins.

Molecule	GFP expression in mouse Clec10a reporter cells [1]	Signal value, Clec10a-Fc [4]	Signal value, Clec10a-Fc with EDTA [4]	Signal value, human IgG1 [5]	also measured
O=C[C@H](O)[C@@H](O)[C@@H](O)[C@H](O)CO [galactose]	–	–	–	–	Inhibition of HDM-induced GFP expression in mouse Clec10a reporter cells ([1]; pretreatment of the reporter cells, HDM-coated plates): inhibited GFP expression; Offset of Clec10a ligand-induced activation of human Asgr1 reporter cells ([2]; addition of galactose to the system): offset, in a concentration dependent manner; Inhibition of HDM-induced GFP expression in human Asgr1 reporter cells ([2]; addition of sugar, HDM-coated plates): inhibited the expression of GFP induced by HDM; Inhibition of HDM-induced GFP expression in human Clec10a reporter cells [3]: only in the Asgr1 reporter cells
CC(=O)N[C@@H]1[C@@H](O[C@@H]2O[C@@H](C)[C@@H](O)[C@@H](O)[C@@H]2O)[C@H](O[C@@H]2O[C@H](CO)[C@H](O)[C@H](O)[C@H]2O)[C@@H](CO)O[C@H]1O [Lewis X, reference compound]	expressed GFP	–	–	–	–
Galβ 1-3(Fucα 1-4)GlcNAcβ 1-PAA [LeA]	activated Clec10a in a dose-dependent manner	5532	0	0	–
CC(=O)N[C@@H]1[C@@H](O[C@@H]2O[C@@H](C)[C@@H](O)[C@@H](O)[C@@H]2O)[C@H](O[C@@H]2O[C@H](CO)[C@H](O)[C@H](O)[C@H]2O[C@@H]2O[C@@H](C)[C@@H](O)[C@@H](O)[C@@H]2O)[C@@H](CO)O[C@H]1O [Lewis Y, reference compound]	did not respond	0	0	0	Binding of Clec10a-Fc to coated plates (ELISA) [6]: not bound
CC(=O)N[C@H]1C(O)O[C@H](CO)[C@H](O)[C@@H]1O[C@@H]1O[C@H](CO)[C@H](O)[C@H](O)[C@H]1O (stereo partly drawn) [T antigen, Galβ(1-3)GalNAc]	activated Clec10a in a dose-dependent manner	–	–	–	Binding of Clec10a-Fc in glycan microarray ([4]; Clec10a-Fc 10 μg/mL): binds; Epidermal thickness ([7]; Clec10a knockout mice): epidermal thickness suppressive effect of the T antigen was not observed; Epidermal thickness ([7]; WT mice): increase in thickness of the skin by LPS was suppressed
COc1ccc(-c2cc3nccn3c(Nc3ncccc3C(N)=O)n2)cc1OC [Syk inhibitor IV]	–	–	–	–	Recruitment of HDM-induced SHP-1 to Clec10a [8]: suppressed the recruitment of HDM-induced SHP-1 to Clec10a
Galβ.1-4(Fucα 1-3)GlcNAcβ 1-PAA [LeX]	activated Clec10a in a dose-dependent manner	2535	0	0	–
B1	–	0	0	0	Signal value, Target [9]: 0

Source: US12617837B2, “Composition for use in treatment of allergic diseases” (UNIVERSITY OF TSUKUBA, priority 2019, dated 2026)
